Reference: US12268632B2, “Self-retaining implantable drug delivery device” (GoldenBiotech, LLC, priority 2018, dated 2025)

Experiments:
Type in all cases: physicochemical
[1] = Physical appearance and durometer mechanical properties of drug-loaded silicone polymer matrix test samples
From the text: To test the loading capacity of a silicone elastomer polymer matrix for a prostaglandin analogue, polymer matrix with different amounts and types of a prostaglandin analogue were made and the physical and mechanical properties of the resulting polymerized drug-loaded matrix were characterized (Tables 1-3). These polymer matrix test samples were made by mixing together a prostaglandin analogue, a liquid cyclic vinyl siloxane elastomer, a crosslinker, and a catalyst using a high-speed mixer and then heated the capped container at 70° C. for 24 hours to cure the mixture. A filler, such as a fumed silica, was also used to provide sufficient mechanical strength to the polymerized matrix. In addition, an inhibitor was used to slow the crosslinking reaction to a workable rate. The resulting thin-disc-shaped drug-loaded polymer matrix was allowed to cool to room temperature and then placed in 4° C. for 24 hours to increase stiffness of the material. The physical appearance of each drug-loaded polymer matrix test sample was examined visually and its mechanical properties analyzed using a durometer.

[2] = Higuchi equation analysis of drug release (cumulative release vs square root of time); conditions: coated drug-loaded silicone polymer matrices
Experimental: In order to ascertain whether the mechanism of drug release was based on diffusion, data obtained from various coated silicone polymer matrices were analyzed using the Higuchi equation. This analysis determines the degree of proportionality between the cumulative amount of drug released and the square root of time (SQRT). […] As exemplified FIG. 10, data is plotted as the square root of time taken on the x-axis and the cumulative percentage of drug release on the y-axis.

[3] = Korsmeyer-Peppas analysis of drug release (log percent released vs log time)
Experimental: To confirm the results obtained based on the Higuchi equation analysis, the data above was also analyzed using the Korsmeyer-Peppas plot, which evaluates the mechanism of drug release by plotting the log of percent drug released over the log time in hours. If n equals 0.45, then Fickian diffusion is indicated for a cylinder (0.42 for cylinder of low aspect ratio). […] As exemplified FIG. 11, data is plotted as the log of cumulative percent drug released on the y-axis and the log time in hours on the x-axis.

[4] = Chemical stability of prostaglandin analogues in PBS, RPHPLC; conditions: PBS at pH 4, 7 and 10 and at 4° C., 33° C. and 50° C.
Experimental: The chemical stability of prostaglandin analogues was also examined. In these experiments, a prostaglandin analogue was incubated in phospho-buffered saline (PBS) at pH 4, 7 and 10 and at 4° C., 33° C. and 50° C. representing long term storage, eye temperature and accelerate temperature conditions respectively. Analyses were performed by RPHPLC as described in Example 2, noting any hydrolysis products formed. […] This stability is most likely due to the amide linkage in bimatoprost which is much more hydrolytically stable than the ester linkage in latanoprost and travoprost.

[5] = In vitro drug release from drug-loaded silicone polymer matrix in PBS pH 7.4 at 37° C., RPHPLC; conditions: uncoated silicone polymer matrix loaded with 10% latanoprost, FIG. 5
Experimental: To test the controlled release properties of the disclosed drug-loaded silicone polymer matrices, the effects of a coating were examined. In these experiments, test samples were made as described in Example 1 to produce thin-disc-shaped drug-loaded polymer matrix. From this material, test samples were prepared by 1) cutting out rectangular polygons of about 3 mm length, about 1 mm width and about 1 mm height were cut from polymerized drug-loaded material; or 2) cutting out cylindrical plugs of about 3 mm length and having a diameter of about 0.5 mm to about 1 mm. The weight of the test samples was in the range of about 0.1 mg to about 4 mg.
These cut test samples were then coated using one of three procedures. […]
To examine the drug release properties of a test sample, each sample was placed in 2 mL Eppendorf tube containing 1.5 mL of Phosphate Buffered Saline, pH 7.4 (PBS). […] An aliquot of the removed PBS was then analyzed by reversed phase HPLC (RPHPLC) to determine the amount of drug released from the test sample during the incubation period. […] Peak detection and quantitation were determined by establishing a calibration curve using known amounts of each drug tested and the amount of drug present in the test sample aliquot interpolated from this calibration curve using ChemStation software.

[6] = Release from post-loaded travoprost section of the implantable device; conditions: post loaded 3 mm section, uncoated, at 38 days
Experimental: A central section of a self-retaining implantable drug delivery device disclosed herein was loaded with travoprost by cutting a 3 mm section of the device and then placed into 0.200 ml of hexanes for 3 hours. Following this period, the self-retaining implantable drug delivery device was placed immediately into 0.050 mL of a travoprost stock solution 25 mg/mL in ethanol and allowed to stand overnight. The following day, this section was washed sequentially by dipping into a water bath, followed by a 10% acetonitrile bath. It was dried at 80 C and set to release the following day. The section was allowed to release over a period of 38 days. The loading was determined to be approximately 13 mcg. […] This release profile is predicted by the Higuchi mechanism. This type of loading procedure we term post loading. The loaded section is coated with a poly(p-xylylene) polymer and two tiny holes are placed completely through the section. The section is then molded together with the two flanking sections of the stent to form the final product. The release from this modified stent follows a near zero order release in vitro and in vivo in preclinical animal models and clinical studies.

[7] = Drug Loading 2.5%, coated drug-loaded silicone polymer matrices
[8] = Drug Loading 5%, coated drug-loaded silicone polymer matrices
[9] = Drug Loading 10%, coated drug-loaded silicone polymer matrices
[10] = Drug Loading 15%, coated drug-loaded silicone polymer matrices
[11] = Drug Loading 20%, coated drug-loaded silicone polymer matrices

amount that would not produce a satisfactory drug-loaded silicone polymer matrix [1] [%]	Average Linear Regression r^2 Value (Higuchi) ([2]; Drug Loading 1%)	Average Linear Regression r^2 Value (Higuchi) ([2]; Drug Loading 2.5%)	Average Linear Regression r^2 Value (Higuchi) ([2]; Drug Loading 5%)	Average Linear Regression r^2 Value (Higuchi) ([2]; Drug Loading 10%)	Average Linear Regression r^2 Value (Higuchi) ([2]; Drug Loading 15%)	Average Linear Regression r^2 Value (Higuchi) ([2]; Drug Loading 20%)	Average n Values (Korsmeyer-Peppas) ([3]; Drug Loading 1%, coated drug-loaded silicone polymer matrices)	Average n Values (Korsmeyer-Peppas) [3, 7]	Average n Values (Korsmeyer-Peppas) [3, 8]	Average n Values (Korsmeyer-Peppas) [3, 9]	Average n Values (Korsmeyer-Peppas) [3, 10]	Average n Values (Korsmeyer-Peppas) [3, 11]	Average n Values (Korsmeyer-Peppas) ([3]; Mean over drug loadings)	chemical stability (hydrolysis) [4]	amount released [6] [%]	SMILES	physical appearance of silicone polymer matrix ([1]; 20% test sample)	physical appearance of silicone polymer matrix ([1]; 25% test sample)	release profile [5]	physical appearance of silicone polymer matrix ([1]; 15% and 20% test samples)
≥ 20	0.992	0.995	0.997	0.988	0.994	0.972	0.326±	0.372±	0.411±	0.377±	0.380±	0.601±	0.37 ± 0.08	the most stable		CCNC(=O)CCC/C=C\C[C@@H]1[C@@H](/C=C/[C@@H](O)CCc2ccccc2)[C@H](O)C[C@@H]1O [Bimatoprost, bimatoprost]	brittle and contained clumps of unincorporated components from the mixture			
≥ 15		0.976	0.972	0.941				0.543±	0.507±	0.453±			0.50 ± 0.09	had the requisite stability	99	CC(C)OC(=O)CCC/C=C\C[C@@H]1[C@@H](/C=C/[C@@H](O)COc2cccc(C(F)(F)F)c2)[C@H](O)C[C@@H]1O [Travoprost, travoprost]				exhibited more elasticity but had surfaces with tacky attributes and a consistency that was not fully homogeneous

SMILES	amount that would not produce a satisfactory drug-loaded silicone polymer matrix [1] [%]	Average Linear Regression r^2 Value (Higuchi) ([2]; Drug Loading 1%)	Average Linear Regression r^2 Value (Higuchi) ([2]; Drug Loading 2.5%)	Average Linear Regression r^2 Value (Higuchi) ([2]; Drug Loading 5%)	Average Linear Regression r^2 Value (Higuchi) ([2]; Drug Loading 10%)	Average Linear Regression r^2 Value (Higuchi) ([2]; Drug Loading 15%)	Average Linear Regression r^2 Value (Higuchi) ([2]; Drug Loading 20%)	Average n Values (Korsmeyer-Peppas) ([3]; Drug Loading 1%, coated drug-loaded silicone polymer matrices)	Average n Values (Korsmeyer-Peppas) [3, 7]	Average n Values (Korsmeyer-Peppas) [3, 8]	Average n Values (Korsmeyer-Peppas) [3, 9]	Average n Values (Korsmeyer-Peppas) [3, 10]	Average n Values (Korsmeyer-Peppas) [3, 11]	Average n Values (Korsmeyer-Peppas) ([3]; Mean over drug loadings)	chemical stability (hydrolysis) [4]	amount released [6] [%]	physical appearance of silicone polymer matrix ([1]; 20% test sample)	physical appearance of silicone polymer matrix ([1]; 25% test sample)	release profile [5]	physical appearance of silicone polymer matrix ([1]; 15% and 20% test samples)
CC(C)OC(=O)CCC/C=C\C[C@@H]1[C@@H](CC[C@@H](O)CCc2ccccc2)[C@H](O)C[C@@H]1O [Latanoprost, latanoprost]	≥ 25			0.964	0.983	0.990	0.990			0.504±	0.501±	0.712±	1.200±	0.57 ± 0.16	travoprost was significantly more stable than latanoprost			exhibited more elasticity but had a surface with tacky attributes and a consistency that was not fully homogeneous	rapid release of the drug over the first five days, which then tapers off and by day 12 shows no further significant release	
